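1) Cells in 96-well plates. 2) Compound, 48 h, 5 concentrations. 3) Linear interpolation between surrounding doses. 4) Unreached endpoint = highest concentration. Abbreviation: GI50, concentration required for 50% inhibition of growth.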 Activity calls are given as the source filed them. No stated cut-off is given here; in the data, active = GI50 up to about 1.1 µM and inactive = higher.
Columns and labels:
Assay in all cases: NCI anticancer screen, dose series, 48 h
NCI-H522 = test system: NCI-H522
OVCAR-4 = test system: OVCAR-4
COLO 205 = test system: COLO 205
786-0 = test system: 786-0
ACHN = test system: ACHN
HOP-62 = test system: HOP-62
A498 = test system: A498
EKVX = test system: EKVX
RXF 393 = test system: RXF 393
SNB-19 = test system: SNB-19
UO-31 = test system: UO-31
SF-295 = test system: SF-295
Hs-578T = test system: Hs-578T
SK-MEL-5 = test system: SK-MEL-5
HCC 2998 = test system: HCC 2998
UACC-62 = test system: UACC-62
PC-3 = test system: PC-3
CAKI-1 = test system: CAKI-1

Row | SMILES | GI50 (NCI-H522) | GI50 (OVCAR-4) | GI50 (COLO 205) | GI50 (786-0) | GI50 (ACHN) | GI50 (HOP-62) | GI50 (A498) | GI50 (EKVX) | GI50 (RXF 393) | GI50 (SNB-19) | GI50 (UO-31) | GI50 (SF-295) | GI50 (Hs-578T) | GI50 (SK-MEL-5) | GI50 (HCC 2998) | GI50 (UACC-62) | GI50 (PC-3) | GI50 (CAKI-1)
1 | O=C1C(=C(C(F)(F)Cl)C(F)(F)Cl)C2CCC1C2 (stereo unspecified) | 0.225 µM (active) | 2.84 µM (inactive) | 1.67 µM (inactive) | 1.87 µM (inactive) | 1.84 µM (inactive) | > 9.16 µM (inactive) | > 10 µM (inactive) | > 10 µM (inactive) | 1.63 µM (inactive) | > 10 µM (inactive) | 2.49 µM (inactive) | 4.67 µM (inactive) | 4.51 µM (inactive) | 1.67 µM (inactive) | 5.31 µM (inactive) | 2.01 µM (inactive) | 2.07 µM (inactive) | 
2 | CC(=O)/C=C1\Nc2ccccc2N\C1=C/C(C)=O | 11.1 µM (inactive) | 19 µM (inactive) | 23.2 µM (inactive) | 18.5 µM (inactive) | 22.6 µM (inactive) | 27.3 µM (inactive) | 27.2 µM (inactive) | 27.5 µM (inactive) | 19.1 µM (inactive) | 38.5 µM (inactive) | 36.6 µM (inactive) | 26.5 µM (inactive) | 29.9 µM (inactive) | 16.8 µM (inactive) |  | 20.1 µM (inactive) | 37.9 µM (inactive) | 60.8 µM (inactive)
3 | COc1ccc(Nc2cc(O)nc(O)n2)cc1 |  | > 100 µM (inactive) | > 100 µM (inactive) | > 100 µM (inactive) | > 100 µM (inactive) | > 100 µM (inactive) | > 100 µM (inactive) | > 100 µM (inactive) | 24.7 µM (inactive) | > 100 µM (inactive) | > 100 µM (inactive) | > 100 µM (inactive) | > 100 µM (inactive) | > 100 µM (inactive) | > 100 µM (inactive) |  | > 100 µM (inactive) | 
4 | Cc1ccsc1/C=N/NC1=NCCN1 |  | > 100 µM (inactive) | > 100 µM (inactive) | > 100 µM (inactive) | > 100 µM (inactive) | > 100 µM (inactive) | > 100 µM (inactive) | > 100 µM (inactive) | > 100 µM (inactive) | > 100 µM (inactive) | > 100 µM (inactive) | 55.3 µM (inactive) | > 100 µM (inactive) | > 100 µM (inactive) | > 100 µM (inactive) | > 100 µM (inactive) | > 100 µM (inactive) | > 100 µM (inactive)
5 | O=C1CC(c2ccccc2Cl)C2(C(=O)NC(=O)NC2=O)C(c2ccccc2Cl)C1 (stereo unspecified) | > 100 µM (inactive) | > 100 µM (inactive) |  | > 100 µM (inactive) | > 100 µM (inactive) | > 100 µM (inactive) | > 100 µM (inactive) | 38.6 µM (inactive) | 29.5 µM (inactive) | > 100 µM (inactive) | > 100 µM (inactive) | > 100 µM (inactive) | 41.4 µM (inactive) | > 100 µM (inactive) | 49.2 µM (inactive) | 46.9 µM (inactive) | > 100 µM (inactive) | 
6 | Cc1c2ccccc2c(CSC(=N)N)c2ccccc12 | 0.0348 µM (active) | 0.174 µM (active) | 0.14 µM (active) | 0.143 µM (active) | 0.0728 µM (active) | 0.241 µM (active) | 0.19 µM (active) | 0.304 µM (active) | 0.0715 µM (active) | 0.228 µM (active) | 0.181 µM (active) | 0.271 µM (active) | 0.172 µM (active) | 0.162 µM (active) |  | 0.181 µM (active) | 0.23 µM (active) | 
7 | Cc1cc(-n2nnc(C(=O)O)c2-c2ccccc2)c2ccc(Cl)cc2n1 | > 100 µM (inactive) | > 100 µM (inactive) | > 100 µM (inactive) | > 100 µM (inactive) | > 100 µM (inactive) |  | > 100 µM (inactive) | > 100 µM (inactive) | > 100 µM (inactive) | > 100 µM (inactive) | > 100 µM (inactive) | > 100 µM (inactive) | > 100 µM (inactive) | > 100 µM (inactive) | > 100 µM (inactive) | > 100 µM (inactive) | > 100 µM (inactive) | > 100 µM (inactive)
8 | CC(C)N(Cc1ccccc1)S(=O)(=O)c1nc(C(C)(C)C)n[nH]1 | > 100 µM (inactive) | > 100 µM (inactive) | > 100 µM (inactive) | > 100 µM (inactive) | > 100 µM (inactive) | > 100 µM (inactive) | > 100 µM (inactive) | > 100 µM (inactive) | > 100 µM (inactive) | > 100 µM (inactive) | > 100 µM (inactive) | > 100 µM (inactive) | > 100 µM (inactive) | > 100 µM (inactive) |  | > 100 µM (inactive) | > 100 µM (inactive) | > 100 µM (inactive)
9 | CC(=O)Nc1ccc2[nH]c(C(=O)N3CC(CCl)c4c3cc(N)c3ccccc43)cc2c1 (stereo unspecified) | < 0.01 µM (active) | < 0.01 µM (active) | 0.0139 µM (active) |  | < 0.01 µM (active) | < 0.0152 µM (active) | 0.0176 µM (active) | < 0.0148 µM (active) | < 0.01 µM (active) | < 0.0217 µM (active) | 0.014 µM (active) | 0.0135 µM (active) | < 0.01 µM (active) | 0.0115 µM (active) | < 0.01 µM (active) | 0.0101 µM (active) | < 0.016 µM (active) | 0.0129 µM (active)
10 | CCCCNC(=O)Cn1c2ccc(Br)cc2c2nc3ccccc3nc21 |  |  | > 100 µM (inactive) | > 100 µM (inactive) | > 100 µM (inactive) | 58.1 µM (inactive) | > 100 µM (inactive) |  | > 100 µM (inactive) | > 100 µM (inactive) | > 100 µM (inactive) | > 100 µM (inactive) | > 100 µM (inactive) | > 100 µM (inactive) |  | > 100 µM (inactive) | > 100 µM (inactive) | 57.3 µM (inactive)
11 | S=c1sscc1N1CCSc2ssc(=S)c21 | 19.8 µM (inactive) | 7.45 µM (inactive) | > 100 µM (inactive) | 33.7 µM (inactive) | 30.5 µM (inactive) |  | 32.1 µM (inactive) | 16.6 µM (inactive) | 47.3 µM (inactive) | 18.8 µM (inactive) | 29.9 µM (inactive) |  | 88.1 µM (inactive) | > 100 µM (inactive) | > 100 µM (inactive) | 67.1 µM (inactive) | 48.1 µM (inactive) | > 100 µM (inactive)
12 | CC(=O)c1ccc2c3c1[C@@H]1O[C@@H]1c1cccc(c1-3)[C@@H]1O[C@H]21 | 5.4 µM (inactive) | 13.6 µM (inactive) | 9.79 µM (inactive) | 5.6 µM (inactive) | 21.6 µM (inactive) | 13.7 µM (inactive) | 21.5 µM (inactive) | 16.4 µM (inactive) | 11.5 µM (inactive) | 20.3 µM (inactive) | 6.84 µM (inactive) | 15 µM (inactive) | 14.9 µM (inactive) | 11.7 µM (inactive) |  | 14 µM (inactive) | 17.3 µM (inactive) | 4.72 µM (inactive)
13 | C=CCn1c(=O)c(Br)nn(CCOCP(=O)(OCC)OCC)c1=O | > 100 µM (inactive) |  | > 100 µM (inactive) |  | > 100 µM (inactive) | > 100 µM (inactive) | > 100 µM (inactive) | > 100 µM (inactive) | > 100 µM (inactive) | > 100 µM (inactive) | > 100 µM (inactive) |  | > 100 µM (inactive) | 61.2 µM (inactive) | > 100 µM (inactive) |  | > 100 µM (inactive) | > 100 µM (inactive)
14 | CC(C)(C)OC(=O)N1C(=O)C2CCCC21 (stereo unspecified) |  | > 100 µM (inactive) | > 100 µM (inactive) | > 100 µM (inactive) | > 100 µM (inactive) | > 100 µM (inactive) | > 100 µM (inactive) |  | > 100 µM (inactive) | > 100 µM (inactive) |  |  | > 100 µM (inactive) | > 100 µM (inactive) | > 100 µM (inactive) | > 100 µM (inactive) | > 100 µM (inactive) | 
15 | CCCCCCCCCCCCOc1ccc(/C=C/C2=[N+](CCCl)CCO2)cc1 | 17 µM (inactive) | 41.7 µM (inactive) | > 100 µM (inactive) | 19.2 µM (inactive) | 50.2 µM (inactive) | > 100 µM (inactive) | > 100 µM (inactive) | 97.1 µM (inactive) |  | > 100 µM (inactive) | 47.3 µM (inactive) | 45.8 µM (inactive) | 56.6 µM (inactive) | 67 µM (inactive) | 39.1 µM (inactive) | 93.3 µM (inactive) | 58.1 µM (inactive) | > 100 µM (inactive)
16 | CC(C)(Oc1ccc(C2C[C@H]2Cl)cc1)C(=O)O (stereo partly specified) | > 100 µM (inactive) | > 100 µM (inactive) | > 100 µM (inactive) | > 100 µM (inactive) |  | > 100 µM (inactive) | > 100 µM (inactive) | > 100 µM (inactive) | > 100 µM (inactive) | > 100 µM (inactive) |  | > 100 µM (inactive) | > 100 µM (inactive) | > 100 µM (inactive) |  | > 100 µM (inactive) | > 100 µM (inactive) | > 100 µM (inactive)
17 | O=c1[nH]c(=O)n(C2OC(CO)C(O)C2O)cc1OCCCc1ccccc1 (stereo unspecified) |  | > 100 µM (inactive) | > 100 µM (inactive) | > 100 µM (inactive) | > 100 µM (inactive) | > 100 µM (inactive) | > 100 µM (inactive) | > 100 µM (inactive) | > 100 µM (inactive) | > 100 µM (inactive) |  | > 100 µM (inactive) | > 100 µM (inactive) | > 100 µM (inactive) | > 100 µM (inactive) | > 100 µM (inactive) | > 100 µM (inactive) | > 100 µM (inactive)
